# Measured values from patent publication US10758534B2 (Vertex Pharmaceuticals Incorporated, priority 2014, dated 2020).
# Biological target: T1, F508del (Homo sapiens, UniProt P13569, DEL508-508)
# T1 construct: expressed in transfected cells
# Assay: Protocol 2: FRET membrane potential optical assay (VIPR), identification of correction compounds
# Type: cell-based
# Conditions: F508del CFTR modulator activity; compounds of Table 1; read-out: EC30
# Method in brief: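 Single-addition HTS format: F508del-expressing NIH3T3 cells pre-incubated 16 hrs at 37° C. ± compound, with 27° C. culture as positive control. Channel activation by forskolin 10 μM and genistein 20 μM upon switch to gluconate bath, pH 7.4; read-out is FRET-based depolarization signal.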
# T1 sequence (P13569 with tags, fused parts or gaps DEL508-508): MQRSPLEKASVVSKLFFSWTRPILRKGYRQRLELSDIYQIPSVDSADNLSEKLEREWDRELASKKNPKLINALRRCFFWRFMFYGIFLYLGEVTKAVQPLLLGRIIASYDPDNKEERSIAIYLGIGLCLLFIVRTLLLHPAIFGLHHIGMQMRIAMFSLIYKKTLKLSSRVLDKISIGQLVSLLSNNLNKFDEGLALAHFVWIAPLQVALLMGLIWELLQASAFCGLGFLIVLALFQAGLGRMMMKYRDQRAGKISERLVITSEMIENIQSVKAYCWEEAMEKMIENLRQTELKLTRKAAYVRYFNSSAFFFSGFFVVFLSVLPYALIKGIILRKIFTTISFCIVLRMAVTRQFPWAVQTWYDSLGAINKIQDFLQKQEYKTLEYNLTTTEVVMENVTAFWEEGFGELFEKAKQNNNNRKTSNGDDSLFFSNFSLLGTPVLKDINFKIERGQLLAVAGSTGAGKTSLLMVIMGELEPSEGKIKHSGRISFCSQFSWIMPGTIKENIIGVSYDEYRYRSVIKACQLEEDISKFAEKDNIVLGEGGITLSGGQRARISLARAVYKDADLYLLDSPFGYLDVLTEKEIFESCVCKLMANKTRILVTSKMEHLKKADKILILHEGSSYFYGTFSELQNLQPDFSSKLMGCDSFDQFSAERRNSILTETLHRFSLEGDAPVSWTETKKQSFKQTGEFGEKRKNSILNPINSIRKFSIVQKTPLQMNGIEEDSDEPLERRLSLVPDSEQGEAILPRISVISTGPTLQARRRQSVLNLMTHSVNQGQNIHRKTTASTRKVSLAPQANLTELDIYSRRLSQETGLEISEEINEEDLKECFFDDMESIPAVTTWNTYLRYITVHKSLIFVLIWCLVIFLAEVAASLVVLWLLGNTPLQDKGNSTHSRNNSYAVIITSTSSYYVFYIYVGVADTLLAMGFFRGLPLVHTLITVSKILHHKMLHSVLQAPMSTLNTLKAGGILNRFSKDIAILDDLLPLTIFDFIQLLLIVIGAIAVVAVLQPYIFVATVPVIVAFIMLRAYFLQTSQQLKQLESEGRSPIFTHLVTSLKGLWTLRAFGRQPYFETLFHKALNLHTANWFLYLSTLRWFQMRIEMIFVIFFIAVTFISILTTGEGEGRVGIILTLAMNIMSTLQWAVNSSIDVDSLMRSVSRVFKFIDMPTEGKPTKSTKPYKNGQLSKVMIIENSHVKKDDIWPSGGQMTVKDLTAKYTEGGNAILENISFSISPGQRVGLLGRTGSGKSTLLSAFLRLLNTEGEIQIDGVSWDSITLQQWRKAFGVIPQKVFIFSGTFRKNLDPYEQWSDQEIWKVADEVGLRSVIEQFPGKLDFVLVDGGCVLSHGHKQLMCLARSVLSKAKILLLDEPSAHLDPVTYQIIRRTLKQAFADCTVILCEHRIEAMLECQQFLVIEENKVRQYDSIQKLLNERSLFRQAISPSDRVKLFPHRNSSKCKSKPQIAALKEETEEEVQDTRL
row,SMILES,EC30 [nM]
1,Cc1cc(C)cc(-c2ccc(C(=O)NS(=O)(=O)c3cccc(OCCC(C)C)n3)c(N3C[C@@H](C)CC3(C)C)n2)c1 [Compound 2701],< 3000
2,"CC1CN(c2ncccc2C(=O)NS(=O)(=O)c2cccc(N3CCCC3C(F)(F)F)n2)C(C)(C)C1 (stereo not shown) [Compound 2055, N—[[6-[2-(trifluoromethyl)pyrrolidin-1-yl]-2-pyridyl]sulfonyl]-2-(2,2,4-trimethylpyrrolidin-1-yl)pyridine-3-carboxamide]",< 3000
3,"CC(C)COc1cc(F)cc(-c2ccc(C(=O)NS(=O)(=O)c3cccc(N)n3)c(N3CCCC(C)(C)CC3)n2)c1 [Compound 2171, N-[(6-amino-2-pyridyl)sulfonyl]-2-(4,4-dimethylazepan-1-yl)-6-(3-fluoro-5-isobutoxy-phenyl)pyridine-3-carboxamide]",< 3000
4,"CC1CN(c2ncccc2C(=O)NS(=O)(=O)c2cccc(Oc3ccc(Cl)cc3)n2)C(C)(C)C1 (stereo not shown) [Compound 2145, N—[[6-(4-chlorophenoxy)-2-pyridyl]sulfonyl]-2-(2,2,4-trimethylpyrrolidin-1-yl)pyridine-3-carboxamide]",< 3000
5,"CC(=O)c1ccc(Nc2cccc(S(=O)(=O)NC(=O)c3cccnc3N3CC(C)CC3(C)C)n2)cc1 (stereo not shown) [Compound 2328, N—[[6-(4-acetylanilino)-2-pyridyl]sulfonyl]-2-(2,2,4-trimethylpyrrolidin-1-yl)pyridine-3-carboxamide]",3000 to 10000
6,CCN(CC)c1cccc(S(=O)(=O)NC(=O)c2cccnc2N2CC(C)CC2(C)C)n1 (stereo not shown) [Compound 2726],< 3000
7,"C[C@@H]1CN(c2nc(-c3ccccc3F)ccc2C(=O)NS(=O)(=O)c2ccc[nH]c2=O)C(C)(C)C1 [Compound 2542, 6-(2-fluorophenyl)-N-[(2-oxo-1H-pyridin-3-yl)sulfonyl]-2-[(4S)-2,2,4-trimethylpyrrolidin-1-yl]pyridine-3-carboxamide]",< 3000
8,"CC1CN(c2ncccc2C(=O)NS(=O)(=O)c2cccc(O[C@H]3CCN(Cc4ccccc4)C3)n2)C(C)(C)C1 (stereo partly drawn) [Compound 2078, N—[[6-[(3S)-1-benzylpyrrolidin-3-yl]oxy-2-pyridyl]sulfonyl]-2-(2,2,4-trimethylpyrrolidin-1-yl)pyridine-3-carboxamide]",3000 to 10000
9,"C[C@@H]1CN(c2nc(-c3ccccc3OC(F)(F)F)ccc2C(=O)NS(=O)(=O)c2ccc[nH]c2=O)C(C)(C)C1 [Compound 2514, N-[(2-oxo-1H-pyridin-3-yl)sulfonyl]-6-[2-(trifluoromethoxy)phenyl]-2-[(4S)-2,2,4-trimethylpyrrolidin-1-yl]pyridine-3-carboxamide]",< 3000
10,"CCOc1cc(F)cc(-c2ccc(C(=O)NS(=O)(=O)c3cccnc3N)c(N3C[C@@H](C)CC3(C)C)n2)c1 [Compound 2018, N-[(2-amino-3-pyridyl)sulfonyl]-6-(3-ethoxy-5-fluoro-phenyl)-2-[(4S)-2,2,4-trimethylpyrrolidin-1-yl]pyridine-3-carboxamide]",< 3000
11,"Cc1ccc2nc(N3C[C@@H](C)CC3(C)C)c(C(=O)NS(=O)(=O)c3ccc[nH]c3=O)cc2c1 [Compound 2471, 6-methyl-N-[(2-oxo-1H-pyridin-3-yl)sulfonyl]-2-[(4S)-2,2,4-trimethylpyrrolidin-1-yl]quinoline-3-carboxamide]",3000 to 10000
12,"CC1CN(c2ncccc2C(=O)NS(=O)(=O)c2cccc(N3CCC(C(F)(F)F)CC3)n2)C(C)(C)C1 (stereo not shown) [Compound 2641, N—[[6-[4-(trifluoromethyl)-1-piperidyl]-2-pyridyl]sulfonyl]-2-(2,2,4-trimethylpyrrolidin-1-yl)pyridine-3-carboxamide]",< 3000
13,"Cc1noc(C)c1-c1ccc(C(=O)NS(=O)(=O)c2cccnc2N)c(N2C[C@@H](C)CC2(C)C)n1 [Compound 2215, N-[(2-amino-3-pyridyl)sulfonyl]-6-(3,5-dimethylisoxazol-4-yl)-2-[(4S)-2,2,4-trimethylpyrrolidin-1-yl]pyridine-3-carboxamide]",3000 to 10000
14,"COc1ccc(OC)c(-c2ccc(C(=O)NS(=O)(=O)c3cccnc3N)c(N3C[C@@H](C)CC3(C)C)n2)c1 [Compound 2195, N-[(2-amino-3-pyridyl)sulfonyl]-6-(2,5-dimethoxyphenyl)-2-[(4S)-2,2,4-trimethylpyrrolidin-1-yl]pyridine-3-carboxamide]",< 3000
15,"CC1CN(c2ncc(C3=CCN(C(=O)OC(C)(C)C)CC3)cc2C(=O)NS(=O)(=O)c2cccc(N)n2)C(C)(C)C1 (stereo not shown) [Compound 2129, tert-butyl 4-[5-[(6-amino-2-pyridyl)sulfonylcarbamoyl]-6-(2,2,4-trimethylpyrrolidin-1-yl)-3-pyridyl]-3,6-dihydro-2H-pyridine-1-carboxylate]",< 3000

# Same assay, conditions: Table 3; compounds of Table 1 as modulators of CFTR activity; protocol not stated
row,SMILES,EC30
1,"Cc1cc(C)c(Cc2nc(C(C)(C)C)ccc2C(=O)NS(=O)(=O)c2cccc(N)c2)c(C)c1 [Compound 346, N-(3-aminophenyl)sulfonyl-6-tert-butyl-2-[(2,4,6-trimethylphenyl)methyl]pyridine-3-carboxamide]",+++ (“+++” means <3 uM)
2,"Cc1cc(C)c(CN2C[C@H](c3ccccc3)C[C@@H]2C(=O)NS(=O)(=O)c2cccc(N)n2)c(C)c1 [Compound 467, (2R,4S)—N-[(6-amino-2-pyridyl)sulfonyl]-4-phenyl-1-[(2,4,6-trimethylphenyl)methyl]pyrrolidine-2-carboxamide]",++ (“++” means between 3 uM and 10 uM)
3,"CC1CCN(c2nc(-c3cc(F)cc(OC(C)C)c3)ccc2C(=O)NS(=O)(=O)c2ccc[nH]c2=O)CC1 [Compound 737, 6-(3-fluoro-5-isopropoxy-phenyl)-2-(4-methyl-1-piperidyl)-N-[(2-oxo-1H-pyridin-3-yl)sulfonyl]pyridine-3-carboxamide]",+++ (“+++” means <3 uM)
4,"COc1ncc(F)cc1-c1ccc(C(=O)NS(=O)(=O)c2cccc(N)n2)c(Oc2c(C)cc(C)cc2C)n1 [Compound 387, N-[(6-amino-2-pyridyl)sulfonyl]-6-(5-fluoro-2-methoxy-3-pyridyl)-2-(2,4,6-trimethylphenoxy)pyridine-3-carboxamide]",+++ (“+++” means <3 uM)
5,"CC(C)COc1cc(F)cc(-c2ccc(C(=O)NS(=O)(=O)c3cccc(N)n3)c(N3C[C@@H]4CC[C@@H](C4)C3)n2)c1 [Compound 581, N-[(6-amino-2-pyridyl)sulfonyl]-2-[(1R,5S)-3-azabicyclo[3.2.1]octan-3-yl]-6-(3-fluoro-5-isobutoxy-phenyl)pyridine-3-carboxamide]",+++ (“+++” means <3 uM)
6,"CC(C)c1ccc(-c2nc(C(C)(C)C)ccc2C(=O)NS(=O)(=O)c2cccc(N)c2)cc1 [Compound 314, N-(3-aminophenyl)sulfonyl-6-tert-butyl-2-(4-isopropylphenyl)pyridine-3-carboxamide]",+++ (“+++” means <3 uM)
7,"CC(C)COc1cc(F)cc(-c2ccc(C(=O)NS(=O)(=O)c3cccc(N)n3)c(Oc3ccccc3)n2)c1 [Compound 376, N-[(6-amino-2-pyridyl)sulfonyl]-6-(3-fluoro-5-isobutoxy-phenyl)-2-phenoxy-pyridine-3-carboxamide]",+++ (“+++” means <3 uM)
8,"Cc1cc(C)c(Cn2c(C(=O)NS(=O)(=O)c3cccc(N)c3)cc3c(F)cccc32)c(C)c1 [Compound 181, N-(3-aminophenyl)sulfonyl-4-fluoro-1-[(2,4,6-trimethylphenyl)methyl]indole-2-carboxamide]",+++ (“+++” means <3 uM)
9,"Cc1cccc(C)c1Cn1nc(-c2cccc(OC(C)C)c2)cc1C(=O)NS(=O)(=O)c1ccccc1 [Compound 133, N-(benzenesulfonyl)-2-[(2,6-dimethylphenyl)methyl]-5-(3-isopropoxyphenyl)pyrazole-3-carboxamide]",+++ (“+++” means <3 uM)
10,"Cc1ccc(-c2nc(C(C)(C)C)ccc2C(=O)NS(=O)(=O)c2ccc(N)cc2)cc1 [Compound 297, N-(4-aminophenyl)sulfonyl-6-tert-butyl-2-(p-tolyl)pyridine-3-carboxamide]",++ (“++” means between 3 uM and 10 uM)
11,"COc1cccc(S(=O)(=O)NC(=O)C2c3ccccc3CN2Cc2c(C)cc(C)cc2C)n1 (stereo not shown) [Compound 174, N-[(6-methoxy-2-pyridyl)sulfonyl]-2-[(2,4,6-trimethylphenyl)methyl]isoindoline-1-carboxamide]",++ (“++” means between 3 uM and 10 uM)
12,"CC(C)COc1cc(F)cc(-c2ccc(C(=O)NS(=O)(=O)c3cccc(N)n3)c(N3CC[C@H](C)C3)n2)c1 [Compound 678, N-[(6-amino-2-pyridyl)sulfonyl]-6-(3-fluoro-5-isobutoxy-phenyl)-2-[(3S)-3-methylpyrrolidin-1-yl]pyridine-3-carboxamide]",+++ (“+++” means <3 uM)
13,"Cc1cc(C)c(Oc2nc(C(C)(C)C)ccc2C(=O)NS(=O)(=O)c2ccc(N)cc2)c(C)c1 [Compound 11, N-(4-aminophenyl)sulfonyl-6-tert-butyl-2-(2,4,6-trimethylphenoxy)pyridine-3-carboxamide]",+++ (“+++” means <3 uM)
14,"CC(C)COc1cc(F)cc(-c2ccc(C(=O)NS(=O)(=O)c3cccc4[nH]ccc34)c(N3CC(C)CC3(C)C)n2)c1 (stereo not shown) [Compound 549, 6-(3-fluoro-5-isobutoxy-phenyl)-N-(1H-indol-4-ylsulfonyl)-2-(2,2,4-trimethylpyrrolidin-1-yl)pyridine-3-carboxamide]",+++ (“+++” means <3 uM)
15,"CCCOc1ccc(F)c(-c2ccc(C(=O)NS(=O)(=O)c3ccc[nH]c3=O)c(Oc3c(C)cc(C)cc3C)n2)c1 [Compound 552, 6-(2-fluoro-5-propoxy-phenyl)-N-[(2-oxo-1H-pyridin-3-yl)sulfonyl]-2-(2,4,6-trimethylphenoxy)pyridine-3-carboxamide]",++ (“++” means between 3 uM and 10 uM)
16,"C[C@@H]1CC[C@H](C)N1c1nc(-c2ccc(OCC3CC3)nc2)ccc1C(=O)NS(=O)(=O)c1cccc(N)n1 [Compound 789, N-[(6-amino-2-pyridyl)sulfonyl]-6-[6-(cyclopropylmethoxy)-3-pyridyl]-2-[(2S,5R)-2,5-dimethylpyrrolidin-1-yl]pyridine-3-carboxamide]",+++ (“+++” means <3 uM)
